Measurements as given in patent US6803369B1, “Compounds and methods for the treatment of neoplastic disease” (priority 2000, dated 2004).

Target: complex between DNA gyrase and pBR322 DNA (Staphylococcus aureus, UniProt P0A0K8+P20831)
Experiment: Binding assay demonstrating ternary complex formation (SEC with HPLC/MS detection)
Parameters: species or system S. aureus
Source text: The above-defined compounds are an exemplary class of compounds, which display the attributes of the claimed compounds of this invention, that is, they act primarily by inhibition of topoisomerase. While the compounds and methods of the invention are directed to eukaryotic, particularly mammalian topoisomerase inhibition, bacterial DNA gyrase was used to illustrate the mechanism of action. The evidence, provided by bacterial enzyme, for such biological activity includes the fact that selective resistance to the compounds is associated with point mutations in Staphylococcus aureus GyrA and B subunits. Further, Escherichia coli and S. aureus DNA gyrase supercoiling activity is inhibited in vitro by the compounds. A ternary complex has been isolated which is composed of pBR322 relaxed circular DNA, S. aureus DNA gyrase, and test compounds. […] The compounds of the invention also show antagonism of ciprofloxacin-induced cleavage of linear DNA.
An excess of test compound is added, typically as a mixture of three ligands, and after incubation the excess compound is separated from the resulting DNA:gyrase complex using size exclusion chromatography (SEC), with reverse phase HPLC and on-line MS detection to identify and quantify the bound compound.

Sequence of complex between DNA gyrase and pBR322 DNA (P20831 whole entry): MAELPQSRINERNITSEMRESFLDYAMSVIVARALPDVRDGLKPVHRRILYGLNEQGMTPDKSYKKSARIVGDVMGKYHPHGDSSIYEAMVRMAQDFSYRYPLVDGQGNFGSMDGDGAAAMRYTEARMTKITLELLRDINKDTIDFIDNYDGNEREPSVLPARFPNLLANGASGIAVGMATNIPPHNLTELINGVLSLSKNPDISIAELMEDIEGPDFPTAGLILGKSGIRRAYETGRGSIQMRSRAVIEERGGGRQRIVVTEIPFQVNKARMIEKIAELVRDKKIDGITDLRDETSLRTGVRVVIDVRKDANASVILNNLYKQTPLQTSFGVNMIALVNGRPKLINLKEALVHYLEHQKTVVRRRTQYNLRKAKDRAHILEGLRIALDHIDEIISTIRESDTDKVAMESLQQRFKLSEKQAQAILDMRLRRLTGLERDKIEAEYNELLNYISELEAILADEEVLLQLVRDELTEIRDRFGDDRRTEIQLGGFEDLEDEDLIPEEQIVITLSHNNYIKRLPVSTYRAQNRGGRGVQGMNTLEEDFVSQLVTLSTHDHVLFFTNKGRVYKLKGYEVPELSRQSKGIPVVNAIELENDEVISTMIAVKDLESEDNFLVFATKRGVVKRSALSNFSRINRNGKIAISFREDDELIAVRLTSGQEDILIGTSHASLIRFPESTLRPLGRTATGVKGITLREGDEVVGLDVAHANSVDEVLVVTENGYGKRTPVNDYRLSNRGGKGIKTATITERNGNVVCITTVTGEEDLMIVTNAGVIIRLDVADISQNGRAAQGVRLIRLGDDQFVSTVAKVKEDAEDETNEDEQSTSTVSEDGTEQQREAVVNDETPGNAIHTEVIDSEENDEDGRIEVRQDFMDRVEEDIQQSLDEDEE
Sequence of complex between DNA gyrase and pBR322 DNA (P0A0K8 whole entry): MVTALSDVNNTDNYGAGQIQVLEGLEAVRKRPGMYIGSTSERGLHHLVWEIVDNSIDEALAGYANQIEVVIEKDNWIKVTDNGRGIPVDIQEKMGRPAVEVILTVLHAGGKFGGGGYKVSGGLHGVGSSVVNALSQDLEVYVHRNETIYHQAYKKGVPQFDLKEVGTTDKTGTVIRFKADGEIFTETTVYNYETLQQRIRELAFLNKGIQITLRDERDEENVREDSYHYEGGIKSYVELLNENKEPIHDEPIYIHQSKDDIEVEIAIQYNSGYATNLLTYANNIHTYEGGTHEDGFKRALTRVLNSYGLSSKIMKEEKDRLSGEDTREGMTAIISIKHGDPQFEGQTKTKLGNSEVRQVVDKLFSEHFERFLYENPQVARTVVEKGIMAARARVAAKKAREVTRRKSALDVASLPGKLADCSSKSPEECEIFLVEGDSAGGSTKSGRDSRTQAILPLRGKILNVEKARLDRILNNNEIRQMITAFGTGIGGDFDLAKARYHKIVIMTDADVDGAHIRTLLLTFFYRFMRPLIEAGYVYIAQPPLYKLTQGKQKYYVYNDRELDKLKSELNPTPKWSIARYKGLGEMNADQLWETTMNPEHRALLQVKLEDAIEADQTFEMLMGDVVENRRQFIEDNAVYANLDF

`CCCCCCCN1CCN(C[C@H](O)c2ccnc3ccc(OC)cc23)C[C@H]1CO.O=C(O)C(=O)O.O=C(O)C(=O)O` [SB366676-AY, [2S]-1-Heptyl-4-[2-(R)-hydroxy-2-(6methoxyquinolin-4-yl)ethyl]-2-hydroxymethylpiperazine dioxalate] was tested, and the “detection in the high molecular weight fraction on the SEC column” value (DNA gyrase + pBR322 DNA, clear resolution from excess ligand) was “detected in the high molecular weight fraction”, the “binding detected in mixture of ligands” value (in the presence of SB369890 and BRL26172CC) was “Only binding of SB366676-AY” and the “stoichiometry: molecules bound to each gyrase:DNA complex” value (stoichiometry studies) was “two”.
